Measurements taken from patent US9409884B2 (Rigel Pharmaceuticals, Inc., priority 2012, dated 2016).

Biological target: AMPK
Test: AMPK activation, enzyme-linked immunosorbent assay
Type: biochemical
Conditions: Table 8, compounds of Table 1
Summary of the method: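 Read-out: ELISA, used to detect compound-driven activation of AMPK.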

EC50 [nM]	Structure (SMILES)
< 100	O=C(NC1CCN(Cc2ccncc2)CC1)c1ccc(OC2CCN(c3ccc(C(F)(F)F)cc3)CC2)nc1 [Compound 1-10, N-(1-(pyridin-4-ylmethyl)piperidin-4-yl)-6-(1-(4-(trifluoromethyl)phenyl)piperidin-4-yloxy)nicotinamide]
< 100	O=C(NC1CCN(Cc2ccncc2)CC1)c1cc2cc(OC3CCN(c4ccc(C(F)(F)F)cc4)CC3)ccc2s1 [Compound 1-138, N-(1-(pyridin-4-ylmethyl)piperidin-4-yl)-5-(1-(4-(trifluoromethyl)phenyl)piperidin-4-yloxy)benzo [b]thiophene-2-carboxamide]
5000 to 10000	O=C(NC1CCNCC1)c1cc2ccc(OC3CCN(c4ccc(C(F)(F)F)cc4)CC3)cc2o1 [Compound 1-84, N-(piperidin-4-yl)-6-(1-(4-(trifluoromethyl)phenyl)piperidin-4-yloxy)benzofuran-2-carboxamide]
< 100	O=S(=O)(NC1CCN(Cc2ccc(C(F)(F)F)cc2)CC1)c1ccc(OC2CCN(c3ccc(C(F)(F)F)cc3)CC2)nc1 [Compound 1-58, N-(1-(4-(trifluoromethyl)benzyl)piperidin-4-yl)-6-(1-(4-(trifluoromethyl)phenyl)piperidin-4-yloxy)pyridine-3-sulfonamide]
1000 to 5000	O=C(NC1CCN(Cc2ccc(F)cc2)CC1)c1ccnc(OC2CCN(c3ccc(C(F)(F)F)cc3)CC2)c1 [Compound 1-22, N-(1-(4-fluorobenzyl)piperidin-4-yl)-2-(1-(4-(trifluoromethyl)phenyl)piperidin-4-yloxy) isonicotinamide]
< 100	O=C(NC1CCN(Cc2cccnc2)CC1)c1cncc(OC2CCN(c3ccc(C(F)(F)F)cc3)CC2)c1 [Compound 1-18, N-(1-(pyridin-3-ylmethyl)piperidin-4-yl)-5-(1-(4-(trifluoromethyl)phenyl)piperidin-4-yloxy)nicotinamide]
500 to 1000	CC(C)(C)OC(=O)N1CCC(NC(=O)c2cc3ccc(OC4CCN(c5ccc(C(F)(F)F)cc5)CC4)cc3s2)CC1 [Compound 1-140, tert-butyl 4-(6-(1-(4-(trifluoromethyl)phenyl)piperidin-4-yloxy)benzo[b]thiophene-2-carboxamido) piperidine-1-carboxylate]
< 100	Cc1c(C(=O)NC2CCN(Cc3cccc(C#N)c3)CC2)oc2cc(OC3CCN(c4ccc(C(F)(F)F)cc4)CC3)ccc12 [Compound 1-66, N-(1-(3-cyanobenzyl)piperidin-4-yl)-3-methyl-6-(1-(4-(trifluoromethyl)phenyl)piperidin-4-yloxy)benzofuran-2-carboxamide]
< 100	N#Cc1ccc(CN2CCC(NC(=O)c3cc4ccc(OC5CCN(c6ccc(C(F)(F)F)cc6)CC5)cc4o3)CC2)cc1 [Compound 1-90, N-(1-(4-cyanobenzyl)piperidin-4-yl)-6-(1-(4-(trifluoromethyl)phenyl)piperidin-4-yloxy)benzofuran-2-carboxamide]
> 10000	O=C(NC1CCNCC1)c1sc2cc(OC3CCN(c4ccc(C(F)(F)F)cc4)CC3)ccc2c1Cl [Compound 1-148, 3-chloro-N-(piperidin-4-yl)-6-(1-(4-(trifluoromethyl)phenyl)piperidin-4-yloxy)benzo [b]thiophene-2-carboxamide]

Same assay, conditions: Table 9, compounds of Table 2

EC50 [nM]	Structure (SMILES)
< 500	O=C(NC1CCN(Cc2ccc(C(F)(F)F)cc2)CC1)c1ccc2[nH]c3c(c2c1)CN(Cc1ccc(C(F)(F)F)cc1)CC3 [Compound 2-13, N-(1-(4-trifluoromethylbenzyl)piperidin-4-yl)-2-(4-(trifluoromethyl)benzyl)-2,3,4,5-tetrahydro-1H-pyrido[4,3-b]indole-8-carboxamide]
10000 to 50000	O=C(NC1CCN(Cc2ccccc2)CC1)c1ccc2[nH]c3c(c2c1)CN(C(=O)OCc1ccccc1)CC3 [Compound 2-2, benzyl 8-(1-(4-benzyl)piperidin-4-ylcarbamoyl)-3,4-dihydro-1H-pyrido[4,3-b]indole-2(5H)-carboxylate]

Same assay, conditions: Table 10, compounds of Table 3

EC50 [nM]	Structure (SMILES)
< 100	O=C(NC1CCN(Cc2ccncc2)CC1)c1cnc(OC2CCN(c3ccc(C(F)(F)F)cc3)CC2)cn1 [Compound 3-21, N-(1-(pyridin-4-ylmethyl)piperidin-4-yl)-5-(1-(4-(trifluoromethyl)phenyl)piperidin-4-yloxy)pyrazine-2-carboxamide]

Same assay, conditions: Table 11, compounds of Table 4

EC50 [nM]	Structure (SMILES)
< 500	O=C(NC1CCN(Cc2ccc(OC(F)(F)F)cc2)C[C@H]1F)c1ccc(C(=O)N2CCN(Cc3ccc(S(=O)(=O)N4CCCC4)cc3)CC2)nc1 (stereo partly drawn) [Compound 4-15, N-((3,4-trans)-3-fluoro-1-(4-(trifluoromethoxy)benzyl)piperidin-4-yl)-6-(4-(4-(pyrrolidin-1-ylsulfonyl)benzyl)piperazine-1-carbonyl)nicotinamide]

Same assay, conditions: Table 12, compounds of Table 5

EC50 [nM]	Structure (SMILES)
1000 to 10000	COc1ccc(CN2CCC(Oc3ccc(C(=O)N4CCN(C(=O)OC(C)(C)C)CC4)cc3)CC2)cc1 [Compound 5-96, tert-butyl 4-(4-(1-(4-methoxybenzyl)piperidin-4-yloxy)benzoyl)piperazine-1-carboxylate]
< 1000	N#Cc1ccc(CN2CCC(Oc3ccc(C(=O)NC4CCN(Cc5ccccn5)CC4)cc3)CC2)cc1 [Compound 5-85, 4-(1-(4-cyanobenzyl)piperidin-4-yloxy)-N-(1-(pyridin-2-ylmethyl)piperidin-4-yl)benzamide]
< 1000	COc1ccc(CN2CCC(NC(=O)c3cccc(OC4CCN(CC5CCN(c6ccccc6)CC5)CC4)c3)CC2)cc1 [Compound 5-110, N-(1-(4-methoxybenzyl)piperidin-4-yl)-3-(1-((1-phenylpiperidin-4-yl)methyl)piperidin-4-yloxy)benzamide]
< 1000	N#Cc1ccc(CN2CCC(NC(=O)c3cccc(OC4CCN(Cc5ccc(C#N)cc5)CC4)c3)CC2)cc1 [Compound 5-124, N-(1-(4-cyanobenzyl)piperidin-4-yl)-3-(1-(4-cyanobenzyl)piperidin-4-yloxy)benzamide]

Same assay, conditions: Table 13, compounds of Table 6

EC50 [nM]	Structure (SMILES)
< 100	N#Cc1ccc(CN2CCC(NC(=O)c3cc4cc(CN5CCC(Oc6ccc(C#N)cc6)CC5)ccc4o3)CC2)cc1 [Compound 6-14, N-(1-(4-cyanobenzyl)piperidin-4-yl)-5-((4-(4-cyanophenoxy)piperidin-1-yl)methyl)benzofuran-2-carboxamide]
100 to 1000	CS(=O)(=O)c1ccc(N2CCN(c3ccc4oc(C(=O)NC5CCN(Cc6ccc(C#N)cc6)CC5)cc4c3)CC2)cc1 [Compound 6-9, N-(1-(4-cyanobenzyl)piperidin-4-yl)-5-(4-(4-(methylsulfonyl)phenyl)piperazin-1-yl)benzofuran-2-carboxamide]
< 100	N#Cc1ccc(CN2CCC(NC(=O)c3cc4cc(C(=O)N5CCN(Cc6ccc(S(=O)(=O)C(F)(F)F)cc6)CC5)ccc4o3)CC2)cc1 [Compound 6-128, N-(1-(4-cyanobenzyl)piperidin-4-yl)-5-(4-(4-(trifluoromethylsulfonyl)benzyl)piperazine-1-carbonyl)benzofuran-2-carboxamide]
< 100	CS(=O)(=O)c1ccc(CN2CCN(C(=O)c3ccc4oc(C(=O)NC5CCN(Cc6cccc(OC(F)(F)F)c6)CC5)cc4c3)CC2)cc1 [Compound 6-146, 5-(4-(4-(methylsulfonyl)benzyl)piperazine-1-carbonyl)-N-(1-(3-(trifluoromethoxy)benzyl)piperidin-4-yl)benzofuran-2-carboxamide]
100 to 1000	Cc1cc(C(=O)Nc2ccc3oc(C(=O)NC4CCN(Cc5ccc(C#N)cc5)CC4)cc3c2)no1 [Compound 6-61, N-(2-(1-(4-cyanobenzyl)piperidin-4-ylcarbamoyl)benzofuran-5-yl)-5-methylisoxazole-3-carboxamide]
< 100	O=C(NC1CCN(Cc2ccc(OC(F)(F)F)cc2)CC1)c1cc2cc(C(=O)N3CCN(c4cccc(C(F)(F)F)c4)CC3)ccc2o1 [Compound 6-140, N-(1-(4-(trifluoromethoxy)benzyl)piperidin-4-yl)-5-(4-(3-(trifluoromethyl)phenyl)piperazine-1-carbonyl) benzofuran-2-carboxamide]
< 100	O=C(Nc1ccc(Oc2ccccc2)cc1)c1cc2cc(C(=O)N3CCN(Cc4ccc(F)cc4)CC3)ccc2o1 [Compound 6-12, 5-(4-(4-fluorobenzyl)piperazine-l-carbonyl)-N-(4-phenoxyphenyl)benzofuran-2-carboxamide]

Same assay, conditions: Table 14, compounds of Table 7

EC50 [nM]	Structure (SMILES)
< 1000	COc1ccc(CN2CCC(NC(=O)c3ccc(C(=O)N4CCC(C(=O)c5ccc(N6CCCC6)cc5)CC4)nc3)CC2)cc1F [Compound 7-113, N-(1-(3-fluoro-4-methoxybenzyl)piperidin-4-yl)-6-(4-(4-(pyrrolidin-1-yl)benzoyl)piperidine-1-carbonyl)nicotinamide]
< 1000	N#Cc1ccc(CN2CCC(NC(=O)c3ccc(C(=O)N4CCC(C(=O)c5ccc(N6CCCC6)cc5)CC4)nc3)[C@H](F)C2)cc1 (stereo partly drawn) [Compound 7-72, N-((3,4-trans)-1-(4-cyanobenzyl)-3-fluoropiperidin-4-yl)-6-(4-(4-(pyrrolidin-1-yl)benzoyl)piperidine-1-carbonyl)nicotinamide]
< 1000	COc1ccc(C(=O)C2CCN(C(=O)c3ccc(C(=O)NC4CCN(Cc5cccc(OC)c5)C[C@H]4F)cn3)CC2)cc1 (stereo partly drawn) [Compound 7-30, N-((3,4-trans)-3-fluoro-1-(3-methoxybenzyl)piperidin-4-yl)-6-(4-(4-methoxybenzoyl)piperidine-1-carbonyl)nicotinamide]
1000 to 10000	COc1ccc(C(=O)C2CCN(C(=O)c3ccc(C(=O)NC4CCN(Cc5ccc(OC)c(C#N)c5)C[C@H]4F)cn3)CC2)cc1 (stereo partly drawn) [Compound 7-55, N-((3,4-trans)-1-(3-cyano-4-methoxybenzyl)-3-fluoropiperidin-4-yl)-6-(4-(4-methoxybenzoyl)piperidine-1-carbonyl)nicotinamide]
< 1000	COc1ccc(C(=O)C2CCN(C(=O)c3ccc(C(=O)NC4CCN(Cc5ccc(OC)c(F)c5)C[C@H]4F)cn3)CC2)cc1 (stereo partly drawn) [Compound 7-44, N-((3,4-trans)-3-fluoro-1-(3-fluoro-4-methoxybenzyl)piperidin-4-yl)-6-(4-(4-methoxybenzoyl)piperidine-1-carbonyl)nicotinamide]
